Calls of active or inactive are those of the source.
Experiments:
[1] = system: Acinetobacter baumannii; experiment: Antimicrobial activity against Acinetobacter baumannii isolate I expressing beta-lactamase OXA-58 isolated from tracheal secretion of patient in presence of Sulbactam by vitek 2 system
[2] = system: Acinetobacter baumannii; experiment: Antimicrobial activity against Acinetobacter baumannii isolate K expressing beta-lactamase OXA-58 isolated from blood culture of patient in presence of Sulbactam by vitek 2 system
[3] = system: Acinetobacter baumannii; experiment: Antimicrobial activity against Acinetobacter baumannii isolate C expressing beta-lactamase OXA-164 isolated from tracheal secretion of patient in presence of Sulbactam by vitek 2 system
[4] = system: Acinetobacter baumannii; experiment: Antimicrobial activity against Acinetobacter baumannii isolate M expressing beta-lactamase OXA-58 isolated from tracheal secretion of patient in presence of Sulbactam by vitek 2 system
[5] = system: Acinetobacter baumannii; experiment: Antimicrobial activity against Acinetobacter baumannii isolate A expressing beta-lactamase OXA-164 isolated from tracheal secretion of patient in presence of Sulbactam by vitek 2 system
[6] = system: Acinetobacter baumannii; experiment: Antimicrobial activity against Acinetobacter baumannii isolate J expressing beta-lactamase OXA-58 isolated from bedsore in presence of Sulbactam by vitek 2 system
[7] = system: Acinetobacter baumannii; experiment: Antimicrobial activity against Acinetobacter baumannii isolate H expressing beta-lactamase OXA-58 isolated from tracheal secretion of patient in presence of Sulbactam by vitek 2 system
[8] = system: Acinetobacter baumannii; experiment: Antimicrobial activity against Acinetobacter baumannii isolate G expressing beta-lactamase OXA-58 isolated from tracheal secretion of patient in presence of Sulbactam by vitek 2 system
[9] = system: Acinetobacter baumannii; experiment: Antimicrobial activity against Acinetobacter baumannii isolate F expressing beta-lactamase OXA-164 isolated from tracheostoma of patient in presence of Sulbactam by vitek 2 system
[10] = system: Acinetobacter baumannii; experiment: Antimicrobial activity against Acinetobacter baumannii isolate D expressing beta-lactamase OXA-164 isolated from tracheal secretion of patient in presence of Sulbactam by vitek 2 system
[11] = system: Acinetobacter baumannii; experiment: Antimicrobial activity against Acinetobacter baumannii isolate L expressing beta-lactamase OXA-58 isolated from tracheal secretion of patient in presence of Sulbactam by vitek 2 system
[12] = system: Acinetobacter baumannii; experiment: Antimicrobial activity against Acinetobacter baumannii isolate B expressing beta-lactamase OXA-164 isolated from tracheal secretion of patient in presence of Sulbactam by vitek 2 system
[13] = system: Acinetobacter baumannii; experiment: Antimicrobial activity against Acinetobacter baumannii isolate E expressing beta-lactamase OXA-164 isolated from tracheal secretion of patient in presence of Sulbactam by vitek 2 system
[14] = system: Acinetobacter baumannii; experiment: Antimicrobial activity against Acinetobacter baumannii isolate D expressing beta-lactamase OXA-164 isolated from tracheal secretion of patient by vitek 2 system
[15] = system: Acinetobacter baumannii; experiment: Antimicrobial activity against Acinetobacter baumannii isolate K expressing beta-lactamase OXA-58 isolated from blood culture of patient in presence of Tazobactam by vitek 2 system
[16] = system: Acinetobacter baumannii; experiment: Antimicrobial activity against Acinetobacter baumannii isolate B expressing beta-lactamase OXA-164 isolated from tracheal secretion of patient by vitek 2 system
[17] = system: Acinetobacter baumannii; experiment: Antimicrobial activity against Acinetobacter baumannii isolate E expressing beta-lactamase OXA-164 isolated from tracheal secretion of patient in presence of Tazobactam by vitek 2 system
[18] = system: Acinetobacter baumannii; experiment: Antimicrobial activity against Acinetobacter baumannii isolate J expressing beta-lactamase OXA-58 isolated from bedsore in presence of Tazobactam by vitek 2 system
[19] = system: Acinetobacter baumannii; experiment: Antimicrobial activity against Acinetobacter baumannii isolate F expressing beta-lactamase OXA-164 isolated from tracheostoma of patient by vitek 2 system
[20] = system: Acinetobacter baumannii; experiment: Antimicrobial activity against Acinetobacter baumannii isolate D expressing beta-lactamase OXA-164 isolated from tracheal secretion of patient in presence of Tazobactam by vitek 2 system
[21] = system: Acinetobacter baumannii; experiment: Antimicrobial activity against Acinetobacter baumannii isolate H expressing beta-lactamase OXA-58 isolated from tracheal secretion of patient in presence of Tazobactam by vitek 2 system
[22] = system: Acinetobacter baumannii; experiment: Antimicrobial activity against Acinetobacter baumannii isolate L expressing beta-lactamase OXA-58 isolated from tracheal secretion of patient by vitek 2 system
[23] = system: Acinetobacter baumannii; experiment: Antimicrobial activity against Acinetobacter baumannii isolate L expressing beta-lactamase OXA-58 isolated from tracheal secretion of patient in presence of Tazobactam by vitek 2 system
[24] = system: Acinetobacter baumannii; experiment: Antimicrobial activity against Acinetobacter baumannii isolate F expressing beta-lactamase OXA-164 isolated from tracheostoma of patient in presence of Tazobactam by vitek 2 system
[25] = system: Acinetobacter baumannii; experiment: Antimicrobial activity against Acinetobacter baumannii isolate A expressing beta-lactamase OXA-164 isolated from tracheal secretion of patient in presence of Tazobactam by vitek 2 system
[26] = system: Acinetobacter baumannii; experiment: Antimicrobial activity against Acinetobacter baumannii isolate I expressing beta-lactamase OXA-58 isolated from tracheal secretion of patient in presence of Tazobactam by vitek 2 system
[27] = system: Acinetobacter baumannii; experiment: Antimicrobial activity against Acinetobacter baumannii isolate G expressing beta-lactamase OXA-58 isolated from tracheal secretion of patient in presence of Tazobactam by vitek 2 system
[28] = system: Acinetobacter baumannii; experiment: Antimicrobial activity against Acinetobacter baumannii isolate B expressing beta-lactamase OXA-164 isolated from tracheal secretion of patient in presence of Tazobactam by vitek 2 system
[29] = system: Acinetobacter baumannii; experiment: Antimicrobial activity against Acinetobacter baumannii isolate A expressing beta-lactamase OXA-164 isolated from tracheal secretion of patient by vitek 2 system
[30] = system: Acinetobacter baumannii; experiment: Antimicrobial activity against Acinetobacter baumannii isolate K expressing beta-lactamase OXA-58 isolated from blood culture of patient by vitek 2 system
[31] = system: Acinetobacter baumannii; experiment: Antimicrobial activity against Acinetobacter baumannii isolate M expressing beta-lactamase OXA-58 isolated from tracheal secretion of patient by vitek 2 system
[32] = system: Acinetobacter baumannii; experiment: Antimicrobial activity against Acinetobacter baumannii isolate M expressing beta-lactamase OXA-58 isolated from tracheal secretion of patient in presence of Tazobactam by vitek 2 system
[33] = system: Acinetobacter baumannii; experiment: Antimicrobial activity against Acinetobacter baumannii isolate I expressing beta-lactamase OXA-58 isolated from tracheal secretion of patient by vitek 2 system
[34] = system: Acinetobacter baumannii; experiment: Antimicrobial activity against Acinetobacter baumannii isolate H expressing beta-lactamase OXA-58 isolated from tracheal secretion of patient by vitek 2 system
[35] = system: Acinetobacter baumannii; experiment: Antimicrobial activity against Acinetobacter baumannii isolate E expressing beta-lactamase OXA-164 isolated from tracheal secretion of patient by vitek 2 system
[36] = system: Acinetobacter baumannii; experiment: Antimicrobial activity against Acinetobacter baumannii isolate C expressing beta-lactamase OXA-164 isolated from tracheal secretion of patient in presence of Tazobactam by vitek 2 system
[37] = system: Acinetobacter baumannii; experiment: Antimicrobial activity against Acinetobacter baumannii isolate C expressing beta-lactamase OXA-164 isolated from tracheal secretion of patient by vitek 2 system
[38] = system: Acinetobacter baumannii; experiment: Antimicrobial activity against Acinetobacter baumannii isolate J expressing beta-lactamase OXA-58 isolated from bedsore by vitek 2 system
[39] = system: Acinetobacter baumannii; experiment: Antimicrobial activity against Acinetobacter baumannii isolate G expressing beta-lactamase OXA-58 isolated from tracheal secretion of patient by vitek 2 system

Measured: MIC

CC1(C)S[C@@H]2[C@H](NC(=O)[C@H](N)c3ccccc3)C(=O)N2[C@H]1C(=O)O
inactive: [1] | [2] | [3] | [4] | [5] | [6] | [7] | [8] | [9] | [10] | [11] | [12] | [13]

CCN1CCN(C(=O)N[C@@H](C(=O)N[C@@H]2C(=O)N3[C@@H]2SC(C)(C)[C@@H]3C(=O)O)c2ccccc2)C(=O)C1=O
not listed: [1] | [2] | [3] | [4] | [5] | [6] | [7] | [8] | [9] | [10] | [11] | [12] | [13]
inactive: all other assays above
